{"source": "paper PMC6076261", "about": "“A new quinoline-based chemical probe inhibits the autophagy-related cysteine protease ATG4B” (Scientific Reports, 2018)", "key": {"[1]": {"system": "osteosarcoma xenograft", "design": "method as in PMID 25483883", "conditions": "dosed daily at 100 mg/kg; cited from earlier work"}, "[2]": {"system": "LC3", "design": "method as in PMID 25483883", "conditions": "cited from earlier work"}, "[3]": {"target": "T1, ATG4B (Homo sapiens, UniProt Q9Y4P1)", "T1 sequence (Q9Y4P1 1-393)": "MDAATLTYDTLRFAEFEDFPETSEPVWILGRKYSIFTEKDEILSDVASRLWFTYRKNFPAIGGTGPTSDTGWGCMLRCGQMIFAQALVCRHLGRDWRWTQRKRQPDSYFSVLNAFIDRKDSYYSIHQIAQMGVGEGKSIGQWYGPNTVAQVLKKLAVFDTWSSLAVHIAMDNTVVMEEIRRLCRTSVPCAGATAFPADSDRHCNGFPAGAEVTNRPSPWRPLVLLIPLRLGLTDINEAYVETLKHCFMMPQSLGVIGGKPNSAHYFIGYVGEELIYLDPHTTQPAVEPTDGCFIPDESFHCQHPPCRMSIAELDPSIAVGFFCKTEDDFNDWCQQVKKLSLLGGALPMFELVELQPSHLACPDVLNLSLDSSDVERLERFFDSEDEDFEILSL", "experiment": "Fluorimetric ATG4B enzymatic assay with fluorescent peptide substrate pim-FG-PABA-AMC", "type": "biochemical", "conditions": "up to 175 µM", "protocol": "100 μL of immobilized TCEP in deionized water was diluted in 2.50 mL of buffer (50 mM Tris, 35 mM NaCl, pH = 8). The sample was centrifuged at 10,000 × g during 1 min. The supernatant was removed. This operation was done two more times. […] The solution was incubated on a carousel at 4 °C for 1 h. This solution was then diluted with 2.06 mL of buffer (50 mM Tris, 35 mM NaCl, 5 mM EDTA, pH 8), centrifuged at 10,000 × g during 1 min and the supernatant, containing the activated ATG4B (1 µM), was kept. A 96-well all-black plate was loaded where each well was charged with 55 µL of inhibitor at different concentrations (0 µM to 100 µM or 200 µM) in buffer/DMSO 41:3 (v/v) and 20 μL of enzyme or buffer were dispensed using a dispenser (Biotek). Plate was incubated for 30 min. A single read was done using excitation and emission wavelengths of 350/450 nm. 25 µL of peptide substrate (pim-FG-PABA-AMC)[52] (final assay concentration 100 µM) was dispensed using a dispenser (Biotek). Experiments were performed in triplicate except when it is mentioned. Fluorescent reads were performed using the Synergy 4 (Biotek) at 25 °C using excitation and emission wavelengths of 350/450 nm every 15 min for 2 h."}, "[4]": {"system": "MDA-MB-231 cells", "experiment": "Lysotracker Red fluorescence assay", "type": "cell-based", "conditions": "CQ 40 µM, LV-320 120 µM; 24 hours", "procedure": "For each experiment, media was replenished every day after initial plating and before treatment. At the end of the experiment the cells were fixed in 4% PFA for 20 minutes and then rinsed with PBS. Cells were then mounted using SlowFade Gold Antifade with DAPI (Invitrogen). For Lysotracker Red®(LTR) experiments, parental MDA-MB-231 cells were incubated with 50 µM of LTR for 5 min in the dark CO2 incubator, rinsed with PBS and fixed with 4% PFA for 20 min. Fixed cells were incubated in DRAQ5 (1:500) in PBS and 100 µg/mL RNaseA for 10 minutes at room temperature before being mounted with SlowFade Gold Antifade (Invitrogen). Leica TCS SP8 inverted confocal microscope with a Leica HC PL APO 63x/1.40 oil objective and LAS AF software (Leica) were used for imaging the cells. For each treatment, the number of green, red and yellow (i.e. red/green overlap where applicable) puncta per cell were determined for at least 100 cells. Puncta counting was performed using the OpenCV Python package; a contours discovery algorithm[66] was applied to images pre-processed by filtering colors and applying a Gaussian filter and adaptive threshold."}, "[5]": {"system": "SKBR3 cells", "experiment": "DQ-BSA assay for lysosomal activity", "type": "cell-based", "conditions": "CQ 20 µM; LV-320 75 and 100 µM", "protocol": "A DQ-BSA assay was used to determine lysosomal degradative activity as described. […] All samples contained equal concentration of DMSO (0.5%) in regular growth media (Gibco DMEM + 10% FBS + 20 mM HEPES + 1X NEAA). […] Data were analyzed using FlowJo software."}, "[6]": {"target": "T2, caspase-3 (Homo sapiens, UniProt P42574)", "T2 construct": "purchased Abcam ab102491", "T2 sequence (P42574 29-175 limits assumed)": "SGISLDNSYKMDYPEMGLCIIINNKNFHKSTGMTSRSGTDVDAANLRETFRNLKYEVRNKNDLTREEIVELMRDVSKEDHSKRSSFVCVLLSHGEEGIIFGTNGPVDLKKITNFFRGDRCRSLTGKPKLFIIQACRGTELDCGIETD", "T2 sequence (P42574 176-277 limits assumed)": "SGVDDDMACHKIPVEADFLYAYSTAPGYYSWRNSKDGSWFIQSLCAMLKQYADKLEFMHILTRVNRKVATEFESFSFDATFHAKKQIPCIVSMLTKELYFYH", "experiment": "Caspase 3 assay (Abcam inhibitor kit)", "type": "biochemical", "protocol": "Inhibition of caspase 3 was assayed using the Abcam Caspase 3 Inhibitor Drug Detection Kit (ab102491) according to the manufacturer’s protocol."}, "[7]": {"target": "T3, Cathepsin B (Homo sapiens, UniProt P07858)", "T3 construct": "Cathepsin B (human, recombinant, active - BioVision #7580-5); purchased BioVision #7580-5", "experiment": "Cathepsin B assay", "type": "biochemical", "conditions": "concentrations up to 60 µM", "protocol": "The assay was performed essentially as described by Mendieta et al.[60] with Cathepsin B (human, recombinant, active - BioVision #7580-5), Substrate Z-Arg-Arg-AMC (Sigma C5429) and 1 µM Z-VAD-FMK (Adooq #A12373) as positive inhibition control.\nThe assay was maintained at 37 °C and monitored every 2 min for 16 min at 348 nm/440 nm (excitation/emission)."}, "[8]": {"system": "SKBR3, MCF7, JIMT1 and MDA-MB-231 cells", "experiment": "Endogenous LC3B-II and p62 western blot in breast cancer cell lines", "type": "cell-based"}, "[9]": {"system": "MDA-MB-231 cells", "experiment": "Autophagic flux and GABARAP western blot in MDA-MB-231 cells", "type": "cell-based", "protocol": "Corresponding mean LC3B-II/actin values were determined using densitometry analysis; error bars, SEM (n = 3). […] Autophagic flux assay using saturating (40 nM) concentrations of bafilomycin A1 (Baf A1) was applied for the assessment of LC3B-II accumulation. […] Corresponding mean LC3B-II/actin values were determined using densitometry analysis; n = 3; error bars, SEM; *p < 0.05. […] The control ATG4B-KO JIMT-1 cells showing the location of pro-LC3B are in lane 3. Samples were run on a 4–12% Bis-tris gradient gel. The banding pattern shown is representative of 3 independent experiments. […] Addition of bafilomycin A1 (Baf A1; 40 nM) or Wortmannin (1 µM) during the final 4 h of treatment had no effect. The GABARAP-II/actin values were determined using densitometry analysis; n = 3; error bars, SEM; *p < 0.05, Student’s t-test."}, "[10]": {"system": "MDA-MB-231 cells stably expressing mRFP-EGFP-LC3B", "experiment": "mRFP-EGFP-LC3B puncta assay of starvation-induced autophagic flux", "type": "cell-based", "conditions": "120 µM for 48 hours; starved conditions", "from_the_text": "Since GFP fluorescence is quenched in acid environments, but red fluorescence is preferentially retained, autolysosomes are indicated by red puncta whereas autophagosomes are indicated by yellow puncta, or the overlap of both red and green fluorescence. In starved control scramble-siRNA treated cells, abundant red puncta were detected as expected, indicating high levels of autophagic flux (Fig. 6a). […] To determine if LV-320 affects lysosomal degradation, we performed a DQ-BSA assay. DQ-Red BSA is a self-quenched fluorescent substrate that enters the cell through endocytosis and fluoresces upon lysosomal degradation.\nFor each experiment, media was replenished every day after initial plating and before treatment. At the end of the experiment the cells were fixed in 4% PFA for 20 minutes and then rinsed with PBS. Cells were then mounted using SlowFade Gold Antifade with DAPI (Invitrogen). […] For each treatment, the number of green, red and yellow (i.e. red/green overlap where applicable) puncta per cell were determined for at least 100 cells. […] LTR fluorescent intensity was measured by the mean gray value from the unadjusted images taken with the same microscope settings of the LTR channel and subtracting the mean background using Image J 1.45 s (https://imagej.nih.gov/ij/) with cells counted by DRAQ5 positive nuclei."}, "[11]": {"experiment": "Pharmacokinetic assay, oral dosing", "type": "in vivo, BL/6 mice", "protocol": "Blood samples (approximately 50 µL) were collected at predetermined intervals. Blood samples were placed into tubes containing sodium heparin and centrifuged at 10000 × g for 14 min to obtain the plasma samples."}, "[12]": {"experiment": "In vivo autophagy assay in GFP-LC3 mice", "conditions": "female, GFP-LC3, mouse, 4 h after last dose, 100 or 200 mg/kg oral, 3 doses over two days", "protocol": "(§1) GFP–LC3 mice were kindly provided by Dr. Mizushima (Tokyo Medical and Dental University, Japan)[67]. […]. The treatment was given by oral gavage. Four hours after the last dose the mice were terminated, blood samples were collected and the livers were harvested for the analysis.\n(§2) After treatment, mouse liver tissues were collected and fixed with 4% paraformaldehyde dissolved in 0.1 M Na-phosphate buffer (pH 7.4) for 4 h, incubated overnight with 15% sucrose/PBS, and 30% sucrose/PBS for 4 h. Tissues were then embedded in OCT compound (Tissue-Tek) and stored at −80 °C. Liver OCT blocks were sectioned into 6 μm slides and countered stained with DAPI-containing mounting medium. Five randomly selected fields from each sample were examined (scorer was blinded) under 40x oil lens of the confocal microscope. Z-stack images were taken from each field with fixed settings at the laser power and exposure time for all samples. Green for GFP-LC3 and blue for nucleus (DAPI). The percentage of GFP-LC3 puncta positive cells from 5 fields were calculated for each sample; and 6 samples from each treatment condition were grouped for statistical analysis. Six animals per treatment group were used based on results in previous studies validating this method as a way to quantify GFP-LC3 puncta."}, "[13]": {"system": "GFP-LC3 mice", "experiment": "In vivo autophagy assay in GFP-LC3 mice", "conditions": "3 doses", "protocol": "as §1, §2"}, "[14]": {"system": "JIMT-1 cells", "experiment": "LC3B-II versus pro-LC3B western blot in JIMT-1 cells", "conditions": "75 µM; 24 h", "procedure": "To further confirm that the increase in LC3B-II represented a block in autophagy flux, the levels of endogenous LC3B-II were quantitated in the presence and absence of bafilomycin A1 (Baf A1).\nMembranes were blocked in 2% milk and incubated in primary antibodies overnight at 4 °C. Primary antibodies were diluted in 2% milk and included: p62 (1:1000; Sigma, ref: P0067), LC3B (1:1000; Abcam, ref: ab48394), GABARAP (1:1000; Abcam, ref: ab109364), beta-actin (1:10000; Abcam, ref: ab6276), and vinculin (1:1000; Abcam, ref: ab129002). Membranes were then washed with 1X PBS-T (0.1%), incubated in HRP-conjugated secondary antibodies and detected using Bio-Rad Clarity Western ECL substrate and the electronic Bio-Rad ChemiDoc MP System. Densitometry was performed using Image Lab software (Bio-Rad), and the relative levels of LC3B-II were determined by first normalizing to the actin loading controls then to the DMSO controls."}}, "note": "Like-named read-outs stand apart in the source and are kept apart here.", "data": [{"compound": "S=C(Nc1ccccn1)c1ccccn1", "note": "[NSC 185058, N-pyridin-2-ylpyridine-2-carbothioamide]", "values": [{"measurement": "tumor growth", "setting": "[1]", "value": "ability to inhibit tumor growth"}, {"measurement": "activation and lipidation of LC3 in cells", "setting": "[2]", "value": "inhibiting activation and lipidation of LC3 in cells"}]}, {"compound": "CCN(CC)CCCC(C)Nc1ccnc2cc(Cl)ccc12", "note": "(stereo not drawn) [chloroquine, reference compound]", "values": [{"measurement": "inhibition of activity of purified ATG4B", "setting": "[3]", "value": "did not show significant inhibition"}, {"measurement": "LTR fluorescence intensity relative to vehicle", "setting": "[4]", "value": "statistically significant decrease"}, {"measurement": "DQ-Red BSA fluorescence (lysosomal degradation)", "setting": "[5]", "value": "significantly reduced"}]}, {"compound": "O=C(O)CCSC(SCCc1ccccc1)c1ccc(/C=C/c2ccnc3cc(Cl)ccc23)cc1", "note": "(stereo not drawn) [LV-320]", "values": [{"measurement": "inhibition at 60 µM", "setting": "[6]", "value": 6, "unit": "%"}, {"measurement": "inhibition of cathepsin B", "setting": "[7]", "value": 32, "unit": "%"}, {"measurement": "p62 level", "setting": "[8]", "value": "dose-dependent increase"}, {"measurement": "concentration at which LC3B-II changes first detected", "setting": "[8]; all four cell lines", "value": "50 to 75", "unit": "µM"}, {"measurement": "endogenous LC3B-II levels", "setting": "[8]; all four cell lines", "value": "dose-dependent increase"}, {"measurement": "GABARAP levels", "setting": "[9]; 120 µM for 24 h", "value": "significant decrease"}, {"measurement": "autophagic flux (LC3B-II with and without Baf A1)", "setting": "[9]; 120 µM for 48 hours, Baf A1 40 nM", "value": "blocks autophagic flux"}, {"measurement": "formation of red puncta (autolysosomes)", "setting": "[10]", "value": "significantly blocked"}, {"measurement": "DQ-Red BSA fluorescence (lysosomal degradation)", "setting": "[5]", "value": "no significant effect"}, {"measurement": "maximum concentration in plasma", "setting": "[11]; 100 mg/kg oral", "value": "210 ± 50", "unit": "µM"}, {"measurement": "maximum concentration in plasma", "setting": "[11]; 200 mg/kg oral", "value": "280 ± 20", "unit": "µM"}, {"measurement": "Tmax", "setting": "[11]; female, BL/6, mouse, plasma, 100 and 200 mg/kg oral, read-out: time of maximum concentration", "value": 1, "unit": "h"}, {"measurement": "dose proportionality of blood levels", "setting": "[11]; oral 30, 100 and 200 mg/kg", "value": "dose proportional up to 100 mg/kg but somewhat less so at 200 mg/kg"}, {"measurement": "concentration at 4 h", "setting": "[12]; blood, read-out: terminal blood levels", "value": "169 ± 23", "unit": "µM"}, {"measurement": "concentration at 4 h", "setting": "[12]; liver, read-out: liver levels", "value": "104 ± 26", "unit": "µM"}, {"measurement": "toxicity of treatment regimens", "setting": "[13]; 100 and 200 mg/kg oral", "value": "did not cause significant toxicity"}, {"measurement": "GFP-LC3 puncta in liver versus controls", "setting": "[13]; 100 or 200 mg/kg oral", "value": "significantly greater accumulation"}, {"measurement": "LC3B-II protein in liver versus vehicle controls", "setting": "[13]; 100 or 200 mg/kg oral", "value": "increased"}, {"measurement": "LC3B-II versus pro-LC3B accumulation", "setting": "[14]", "value": "accumulation of LC3B-II but not pro-LC3B"}]}]}
